According to PubChem BioAssay AID2060488 (Molecular Pharmacology Branch, DTP, NCI, 2025):
Several values for one entry are separate records, joined by “and”; a condition that tells them apart may be missing. Equal entries are not always repeated.

Test system: 966289-007-R4-J1-PDC complex spheroid viability
Assay: Anticancer human tumor 966289-007-R4-J1-PDC patient-derived pancreatic adenocarcinoma cell line growth inhibition [GQUAD]
Conditions: for viability, T/C: stronger effect = lower value
Text: DNA G-quadruplex Stabilizer Agents in Combinations in Complex Spheroids
A high-throughput screen of multi-cell type tumor spheroids was designed to identify active combinations of DNA G-quadruplex stabilizer agents and targeted small molecules. Complex spheroids include a stromal component modeled by human endothelial cells (HUVEC) and fibroblasts modeled by human mesenchymal stem cells (MSCs). The concentration ranges selected for each drug and investigational agent were based upon clinically achievable concentrations if the clinical Cmax of the agent was known.
Compounds. The drugs and investigational agents: pidnarulex (CX-5461; NSC782164), APTO-253 (NSC789042), BRACO-19 (NSC847499), peposertib (NSC802822), ceralasertib (NSC780249), elimusertib (NSC800525), camonsertib (NSC841442), AZD-1390 (NSC803789), olaparib (NSC753686), talazoparib (NSC767125), ART-558 (NSC835418), sotorasib (NSC818433), MRTX-1133 (NSC836407), SN-38 (NSC673596), topotecan (NSC609699), etoposide (NSC141540), doxorubicin (NSC123127), gemcitabine (NSC613327), 5-fluorouracil (NSC19893), paclitaxel (NSC125973), vemurafenib (NSC761431), panobinostat (NSC761190), R-306465 (JNJ-16241199; NSC773264), adavosertib (NSC754352), TP-3654 (NSC805149), carboplatin (NSC241240), KSQ-4279 (NSC840948), and staurosporine (NSC755774) were obtained from the National Cancer Institute (NCI) Developmental Therapeutics Program Chemical Repository (34). The FDA-approved anticancer drug set is available from the NCI Developmental Therapeutics Program. […] The stock solutions were prepared in dimethyl sulfoxide (DMSO, Sigma-Aldrich, St. Louis, MO, cat. D2650) at 800-fold the tested concentration and stored at -70 degrees C prior to their use. All drugs and investigational agents were tested over a range starting from a high concentration at or near the clinical Cmax and decreasing in half-log increments. If the clinical Cmax for an agent had not been determined, the highest concentration tested was 10 microM.
2.3 Cell Culture. All cells were maintained in an incubator at 37 degrees C and 5% CO2 with 95% humidity. The PDC lines were cultured according to standard operating procedures established by the NCI PDMR. All PDCs were thawed and cultured in Matrigel-coated flasks prepared with a working solution of 1X Ham's F-12 nutrient mix, without supplementation (Invitrogen, cat. 11765054), 100 U/mL penicillin-streptomycin (Invitrogen, cat. 15140122), and 2.5% Matrigel (Corning Inc., cat. 354248) for the first three passages. The 857933-349-R-J2-PDC line was cultured in 6C/Colon 1B media, which includes advanced DMEM/F-12 (Thermo Fisher Scientific, cat. 12634028), 10 mM HEPES (Thermo Fisher Scientific, cat. 15630080), 1X GlutaMAX supplement (Thermo Fisher Scientific, cat. 35050061), 0.1 mg/mL primocin (InvivoGen, cat. ant-pm-2), 10% defined fetal bovine serum, heat inactivated (HyClone Laboratories Inc., cat. SH30070.03HI), 50% L-WRN conditioned media (ATCC, cat. CRL-3276), 1.25 mM N-Acetyl-L-cysteine (Sigma-Aldrich, cat. A9165), 10 mM nicotinamide (Sigma-Aldrich, cat. N0636), 1X B-27 supplement (Thermo Fisher Scientific, cat. 17504044), 1X N-2 supplement (Thermo Fisher Scientific, cat. 17502048), 10 microM Y-27632 dihydrochloride (Tocris Bioscience, cat. 1254), and 50 ng/mL human EGF recombinant protein (Thermo Fisher Scientific, cat. PHG0311). The 485176-168-R4-J1-PDC line was cultured in Panc media, which includes all 6C/Colon 1B media components plus 100 ng/mL human FGF-10 (Thermo Fisher Scientific, cat. 100-26), 500 nM SB-431542 (Selleckchem, cat. S1067), and gastrin (Tocris, cat. 3006).
[…]

[1] = curve of first compound, second compound 0.0316 µM
[2] = curve of first compound, second compound 0.1 µM
[3] = curve of first compound, second compound 0.316 µM
[4] = curve of first compound, second compound 1 µM
[5] = curve of first compound, second compound 3.16 µM
[6] = curve of first compound, second compound 10 µM
[7] = second compound 0.0316 µM, first compound 0.0316 µM
[8] = second compound 0.0316 µM, first compound 0.1 µM
[9] = second compound 0.0316 µM, first compound 0.316 µM
[10] = second compound 0.0316 µM, first compound 1 µM
[11] = second compound 0.0316 µM, first compound 3.16 µM
[12] = second compound 0.0316 µM, first compound 10 µM
[13] = second compound 0.1 µM, first compound 0.0316 µM
[14] = second compound 0.1 µM, first compound 0.1 µM
[15] = second compound 0.1 µM, first compound 0.316 µM
[16] = second compound 0.1 µM, first compound 1 µM
[17] = second compound 0.1 µM, first compound 3.16 µM
[18] = second compound 0.1 µM, first compound 10 µM
[19] = second compound 0.316 µM, first compound 0.0316 µM
[20] = second compound 0.316 µM, first compound 0.1 µM
[21] = second compound 0.316 µM, first compound 0.316 µM
[22] = second compound 0.316 µM, first compound 1 µM
[23] = second compound 0.316 µM, first compound 3.16 µM
[24] = second compound 0.316 µM, first compound 10 µM
[25] = second compound 1 µM, first compound 0.0316 µM
[26] = second compound 1 µM, first compound 0.1 µM
[27] = second compound 1 µM, first compound 0.316 µM
[28] = second compound 1 µM, first compound 1 µM
[29] = second compound 1 µM, first compound 3.16 µM
[30] = second compound 1 µM, first compound 10 µM
[31] = second compound 3.16 µM, first compound 0.0316 µM
[32] = second compound 3.16 µM, first compound 0.1 µM
[33] = second compound 3.16 µM, first compound 0.316 µM
[34] = second compound 3.16 µM, first compound 1 µM
[35] = second compound 3.16 µM, first compound 3.16 µM
[36] = second compound 3.16 µM, first compound 10 µM
[37] = second compound 10 µM, first compound 0.0316 µM
[38] = second compound 10 µM, first compound 0.1 µM
[39] = second compound 10 µM, first compound 0.316 µM
[40] = second compound 10 µM, first compound 1 µM
[41] = second compound 10 µM, first compound 3.16 µM
[42] = second compound 10 µM, first compound 10 µM
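Also: spheroids exposed to the agents for seven days before readout.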
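For viability, T/C in this document: percent viability relative to DMSO vehicle control wells taken as 100%.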

Compound `COc1cccc2c1C(=O)c1c(O)c3c(c(O)c1C2=O)CC(O)(C(=O)CO)CC3OC1CC(N)C(O)C(C)O1` (stereo not drawn) + CN(C)c1ccc(Nc2c3ccc(NC(=O)CCN4CCCC4)cc3nc3cc(NC(=O)CCN4CCCC4)ccc23)cc1 has an IC50 [1] of 69.2 nM, an IC50 [2] of 67.1 nM and an IC50 [3] of 65.1 nM. It also gave an IC50 [4] of 66.2 nM, an IC50 [5] of 65.7 nM and an IC50 [6] of 59.6 nM. It also gave a viability, T/C [7] of 112%, a viability, T/C [8] of 20.7% and a viability, T/C [9] of 3.69%. It also gave a viability, T/C [10] of 0.82%, a viability, T/C [11] of 0.35% and a viability, T/C [12] of 0.92%. It also gave a viability, T/C [13] of 108%, a viability, T/C [14] of 19.4% and a viability, T/C [15] of 3.8%. For the same compound, the viability, T/C [16] was 0.83%, the viability, T/C [17] was 0.26% and the viability, T/C [18] was 0.53%. It also gave a viability, T/C [19] of 105%, a viability, T/C [20] of 17.7% and a viability, T/C [21] of 3.65%. For the same compound, the viability, T/C [22] was 0.88%, the viability, T/C [23] was 0.29% and the viability, T/C [24] was 0.67%. For the same compound, the viability, T/C [25] was 101%, the viability, T/C [26] was 21.3% and the viability, T/C [27] was 3.85%. The viability, T/C [28] was 0.93%, the viability, T/C [29] was 0.27% and the viability, T/C [30] was 0.34%. The viability, T/C [31] was 106%, the viability, T/C [32] was 18.1% and the viability, T/C [33] was 3.67%. The viability, T/C [34] was 0.97%, the viability, T/C [35] was 0.25% and the viability, T/C [36] was 0.67%. It also gave a viability, T/C [37] of 97.9%, a viability, T/C [38] of 11% and a viability, T/C [39] of 1.38%. For the same compound, the viability, T/C [40] was 0.42%, the viability, T/C [41] was 0.24% and the viability, T/C [42] was 0.29%.
With `Cn1ncnc1[C@H]1c2n[nH]c(=O)c3cc(F)cc(c23)N[C@@H]1c1ccc(F)cc1` the viability, T/C (compound 0.000999 µM) was 105% and 99.3% and 95.6%, the viability, T/C (compound 0.00316 µM) was 91.2% and 98.8% and 98.2% and the viability, T/C (compound 0.00999 µM) was 113% and 105% and 112%. The viability, T/C (compound 0.0316 µM) was 92.4% and 104% and 99.6%, the viability, T/C (compound 0.0999 µM) was 48.8% and 72.8% and 46.1% and the viability, T/C (compound 0.316 µM) was 22.8% and 22.4% and 18%. For the same compound, the IC50 (curve of compound) was 96.1 nM and 168 nM and 91.9 nM.
For `CCc1c2c(nc3ccc(O)cc13)-c1cc3c(c(=O)n1C2)COC(=O)[C@]3(O)CC`, the viability, T/C (compound 0.000999 µM) was 21.8% and 23.1% and 26.9%, the viability, T/C (compound 0.00316 µM) was 0.79% and 0.89% and 0.66% and the viability, T/C (compound 0.00999 µM) was 0.67% and 0.66% and 0.5%. The viability, T/C (compound 0.0316 µM) was 0.8% and 0.6% and 0.43%, the viability, T/C (compound 0.0999 µM) was 0.53% and 0.49% and 0.38% and the viability, T/C (compound 0.316 µM) was 0.45% and 0.44% and 0.36%. It also gave an IC50 (curve of compound) of less than 0.999 nM.
In the case of `O=c1[nH]cc(F)c(=O)[nH]1` + CN(C)c1ccc(Nc2c3ccc(NC(=O)CCN4CCCC4)cc3nc3cc(NC(=O)CCN4CCCC4)ccc23)cc1, the IC50 [1] is reported as 205 nM, the IC50 [2] is reported as 209 nM and the IC50 [3] is reported as 208 nM. The IC50 [4] was 206 nM, the IC50 [5] was 213 nM and the IC50 [6] was 195 nM. The viability, T/C [7] was 104%, the viability, T/C [8] was 103% and the viability, T/C [9] was 18.4%. It also gave a viability, T/C [10] of 6.28%, a viability, T/C [11] of 5.63% and a viability, T/C [12] of 6.35%. The viability, T/C [13] was 103%, the viability, T/C [14] was 113% and the viability, T/C [15] was 17.7%. It also gave a viability, T/C [16] of 7.05%, a viability, T/C [17] of 5.04% and a viability, T/C [18] of 6.55%. It also gave a viability, T/C [19] of 105%, a viability, T/C [20] of 109% and a viability, T/C [21] of 17.5%. For the same compound, the viability, T/C [22] was 7.23%, the viability, T/C [23] was 5.77% and the viability, T/C [24] was 6.78%. For the same compound, the viability, T/C [25] was 103%, the viability, T/C [26] was 107% and the viability, T/C [27] was 17.5%. For the same compound, the viability, T/C [28] was 6.91%, the viability, T/C [29] was 5.6% and the viability, T/C [30] was 5.8%. It also gave a viability, T/C [31] of 101%, a viability, T/C [32] of 106% and a viability, T/C [33] of 22.2%. It also gave a viability, T/C [34] of 8.51%, a viability, T/C [35] of 5.41% and a viability, T/C [36] of 5.54%. The viability, T/C [37] was 93.8%, the viability, T/C [38] was 103% and the viability, T/C [39] was 14.6%. It also gave a viability, T/C [40] of 4.55%, a viability, T/C [41] of 3.52% and a viability, T/C [42] of 3.2%.
